According to article PMC11984407, “A natural small molecule isoginkgetin alleviates hypercholesterolemia and atherosclerosis by targeting ACLY” (Theranostics, 2025):

How the values were obtained:
[1] = biological target: T1, ACLY (Mus musculus, UniProt Q91V92); test: Cellular thermal shift assay in AML12 cell lysates; format: binding; design: The AML12 cell lysates were separated into two portions; endogenous in cells; host or cells: AML12; settings: 5 µM, 50 to 90 °C
T1 sequence (Q91V92 1-1091): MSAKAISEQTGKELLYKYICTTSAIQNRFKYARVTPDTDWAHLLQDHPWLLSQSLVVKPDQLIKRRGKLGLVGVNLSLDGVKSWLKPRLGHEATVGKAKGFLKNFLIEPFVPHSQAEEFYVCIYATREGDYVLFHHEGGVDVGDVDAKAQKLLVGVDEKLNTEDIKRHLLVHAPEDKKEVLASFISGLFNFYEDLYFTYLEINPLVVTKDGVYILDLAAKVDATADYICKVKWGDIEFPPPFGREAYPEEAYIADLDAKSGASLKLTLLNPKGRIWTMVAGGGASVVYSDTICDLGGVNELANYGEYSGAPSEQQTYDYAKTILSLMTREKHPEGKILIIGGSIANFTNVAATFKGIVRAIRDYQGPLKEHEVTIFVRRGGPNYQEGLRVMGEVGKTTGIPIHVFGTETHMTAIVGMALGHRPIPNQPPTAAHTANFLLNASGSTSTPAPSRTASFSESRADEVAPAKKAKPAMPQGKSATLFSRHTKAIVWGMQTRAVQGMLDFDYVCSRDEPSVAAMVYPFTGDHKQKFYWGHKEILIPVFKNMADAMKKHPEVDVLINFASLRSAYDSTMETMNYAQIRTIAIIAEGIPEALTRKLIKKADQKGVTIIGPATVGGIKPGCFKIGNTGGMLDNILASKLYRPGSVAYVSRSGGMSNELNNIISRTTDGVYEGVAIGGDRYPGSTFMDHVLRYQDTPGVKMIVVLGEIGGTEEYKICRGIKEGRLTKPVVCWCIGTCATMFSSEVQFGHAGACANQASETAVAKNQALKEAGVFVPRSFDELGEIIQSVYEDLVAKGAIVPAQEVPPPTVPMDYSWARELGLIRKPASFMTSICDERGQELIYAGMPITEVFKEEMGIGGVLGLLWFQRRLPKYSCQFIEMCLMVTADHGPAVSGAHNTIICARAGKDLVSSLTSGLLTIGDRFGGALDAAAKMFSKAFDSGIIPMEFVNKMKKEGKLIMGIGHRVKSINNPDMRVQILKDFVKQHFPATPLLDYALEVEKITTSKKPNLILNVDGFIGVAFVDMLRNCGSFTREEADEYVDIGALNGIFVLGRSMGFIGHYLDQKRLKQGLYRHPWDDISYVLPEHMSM
Procedure: The AML12 cell lysates were separated into two portions; one served as a control, while the other was exposed to 5 µM ISOGK for 1 h at room temperature. Subsequently, the lysates were individually heated at the specified temperatures (50 to 90 °C) for 5 min and allowed to cool at room temperature. Following this, the lysates underwent centrifugation at 12,000 rpm for 10 min at 4 °C, after which the supernatants were analyzed through Western blot.

[2] = test system: primary mouse hepatocytes; test: Nile Red staining of primary hepatocytes from high fat diet mice; format: cell-based; settings: varying concentrations, 12 h, hepatocytes from 16-week high fat diet mice
From the text: Primary hepatocytes were isolated from male C57BL/6J mice fed a high-fat diet (HFD, 60 kcal% fat, 20 kcal% protein, 20 kcal% carbohydrate; D12492; RESEARCH DIETS, New Brunswick, NJ, USA) for 16 weeks according to our previous study. At the end of experiment, the mice were initially anaesthetized and subsequently subjected to perfusion with Liver Perfusion Medium (17701-038; Thermo Fisher Scientific, Waltham, MA, USA) via the portal vein, followed by Liver Digestion Medium (17701-034, Thermo Fisher Scientific, Waltham, MA, USA). Following perfusion, the liver was extracted and passed through a 100 μm cell strainer. The resulting cells were subjected to centrifugation at 50×g for 1 min, after which cells were incubated in DMEM supplemented with 10% FBS (F05-001-B160216; Bio-One Biotechnology, Guangzhou, China) and 1% penicillin-streptomycin (15140-122; Gibco by Invitrogen, Carlsbad, CA, USA) at 37 °C.
For the Nile Red staining procedure, primary mouse hepatocytes were treated with IOSGK at varying concentrations for a period of 12 h. Subsequently, the cells were fixed with 4% paraformaldehyde (PFA) and stained with Nile Red (N1142, Invitrogen, Carlsbad, CA, USA). The intracellular accumulation of lipids was visualized and quantified using a laser scanning confocal microscope (TCS SP8; Leica, Wetzlar, Germany).

[3] = test system: Apoe-/- mice; test: Liver Acly knockdown by GalNAc-siAcly in Apoe-/- mice; format: in vivo, mouse
Procedure: Conjugating siRNA with N-acetylgalactosamine (GalNAc) is a promising strategy for depleting target gene expression specifically in the liver. […] In this study, we employed GalNAc-siAcly to knock down Acly in the liver of Apoe^-/- mice that were fed high cholesterol diet for 15 weeks. ISOGK was administered starting from the 7th week for 8 additional weeks (Figure 7A). […] The qRT-PCR results also supported the same conclusion (Figure S7A).
Figure 7 The anti-atherosclerotic and lipid-lowering effects of isoginkgetin in Apoe^-/- mice were ACLY-dependent. (A) Scheme of study design. Briefly, male Apoe^-/- mice were induced by high cholesterol diet for 7 weeks and administrated GalNAc-siAcly (3 mg/kg/month). Animals then received ISOGK (20 mg/kg/day) treatment for another 8 weeks. (B) Immunoblotting analysis and quantification of ACLY protein in liver and kidney tissues from indicated groups (n = 3). One-way ANOVA followed by Bonferroni's post hoc test. (C) Representative images of Oil Red O staining of en face aortas from male Apoe^-/- mice fed high cholesterol diet. (D) Representative images of ORO staining of the aortic sinus from male Apoe^-/- mice fed high cholesterol diet. (E) Representative images of H&E staining of the aortic sinus from male Apoe^-/- mice fed High cholesterol diet. (F) Quantitative analysis of C-E (n = 6 - 8). One-way ANOVA followed by Bonferroni's post hoc test. (G) Plasma levels of TC, TG, LDL-C and HDL-C in the indicated groups (n = 6 - 8). One-way ANOVA followed by Bonferroni's post hoc test. The data are means ± SEM, n.s., not significant, *P < 0.05, **P < 0.01, ***P < 0.001, ****P < 0.0001.

For `COc1ccc(-c2cc(=O)c3c(O)cc(O)c(-c4cc(-c5cc(=O)c6c(O)cc(O)cc6o5)ccc4OC)c3o2)cc1` [ISOGK, Isoginkgetin], the “thermal stabilization of ACLY” value [1] was “stabilized the ACLY protein”, the “hepatic lipid levels (Nile Red staining)” value [2] was “reduced hepatic lipid levels” and the “effect on atherosclerosis in aortic sinus” value ([3]; Acly knockdown Apoe-/- mice) was “not observed”. The “lipid-lowering effect (plasma TC, TG, LDL-C, HDL-C)” value ([3]; Acly knockdown Apoe-/- mice) was “not further observed”, the aortic plaque area ([3]; Acly knockdown group (GalNAc-siAcly), 20 mg/kg/day) was “not decreased further” and the “aortic sinus lesion areas and necrotic core area” value ([3]; control Apoe-/- mice, 20 mg/kg/day) was “significantly reduced”. For the same molecule, the “size of aortic plaques vs vehicle” value ([3]; control Apoe-/- mice, 20 mg/kg/day, 8 weeks) was “significantly lower”.
